Results: US12527773B2, “Flavi-block: a pan-flavivirus inhibitor” (Baden-Württemberg Stiftung GmbH, priority 2020, dated 2026)
Structures can show the parent of a compound that is named as a salt.

Assays:
[1] = Metabolic stability in mouse liver microsomes; conditions: male, Balb/c, mouse, microsomes, pH 7.4
Protocol: Microsomal incubations were carried out in 96-well plates in 5 aliquots of […] each (one for each time point). […] Control incubations were performed replacing the NADPH-cofactor system with PBS. […] Incubations were performed in duplicates. Five time points over 40 minutes had been analyzed. The reactions were stopped by adding 12 volumes of 90% acetonitrile-water to incubation aliquots, followed by protein sedimentation by centrifuging at 5500 rpm for 3 minutes. […]. Supernatants were analyzed using the HPLC system coupled with tandem mass spectrometer.
The elimination constant (kel), half-life (t½) and intrinsic clearance (Clint) were determined in plot of In(AUC) versus time, using linear regression analysis (In order to indicate the quality of the linear regression analysis, the R (correlation coefficient) values are provided. In some cases, the last time point is excluded from the calculations to ensure acceptable logarithmic linearity of decay): […]

[2] = system: hematopoietic stem cell formation; assay: Effect on zebrafish hematopoietic stem cell formation (in situ runx-1+c-myb); format: in vivo; conditions: 36 hpf
Protocol: Zebrafish embryos were exposed 20-30 min after fertilization to differing concentrations of the compounds C10 and D1 (5 μM; 15 μM; 25 μM) or to medium containing the corresponding solvent (DMSO) concentration. Therefore, 3-5 embryos were sorted into each of three wells of a 96 well plate containing 200 μl of medium. For phenotype analysis, triplicates were imaged after 6-7 h post fertilization (hpf) at approximately shield stage, after 24 hpf and after 48 hpf. Dead +unfertilized embryos were removed. For imaging at 24 hpf +48 hpf; embryos were anesthetized using MESAB. (A) Diagramm showing the percentage of embryos at each time point either developing normal (blue color) or with the indicated phenotype. (B) representative images of embryos treated with the indicated compounds, or controls at the respective time points. (C) To additionally elucidate the influence on hematopoietic stem cell formation, approx. half of the embryos were sampled at 36 hpf and an in situ staining for runx-1+c-myb was performed. Shown are representative images of hematopoietic stem cell formation with the treatment indicated.
Embryos were exposed 20-30 min after fertilization to differing concentrations of the compounds C10 and D1 (5 μM; 15 μM; 25 μM) or to medium containing the corresponding solvent (DMSO) concentration. […]

[3] = system: VP1 polyomavirus, LP1 HPV16, p24 HIV, BSA, GFP; assay: Specificity in the cross-linking assay: other capsid and non-related proteins; format: biochemical
Protocol: (§1) DSS was included as a positive control.
To study the specificity of C10, capsid proteins of other viruses (VP1 polyomavirus, LP1 HPV16, and p24 HIV) as well as non-related proteins (BSA, GFP), were incubated in the so-called cross-linking assay, with DSS or C10.

DENV capsid protein = target: T1, DENV capsid protein (Dengue virus type 2, UniProt P29990); assay: Crosslinking of recombinant DENV capsid protein (Western blot); format: biochemical
T1 construct: recombinant DENV capsid protein; made in house; host or cells: E. coli
From the text: as §1

in vitro = conditions: for % Remain. Mean: mouse plasma, 1 μM, 37° C.
Protocol: Plasma stability is defined as the percentage of parent compound remaining in plasma over the time.
Incubations were carried out in 5 aliquots of 70 μL each (one for each time point), in duplicates. Test compounds (1 μM, final DMSO concentration 1%) were incubated at 37° C. with shaking at 100 rpm. Five time points over 120 minutes have been analyzed. The reactions were stopped by adding 420 μL of acetonitrile-water mixture (90:10) with subsequent plasma proteins sedimentation by centrifuging at 5500 rpm for 5 minutes. Supernatants were analyzed by the HPLC system coupled with tandem mass spectrometer. The percentage of the test compounds remaining after incubation in plasma and their half-lives (T1/2) were calculated.

HCV = assay: IC50 against HCV, RLuc reporter virus, re-infection of naïve Huh7.5 cells; format: cell-based, Hepatitis C virus; conditions: serial dilutions 20 to 0.0024 μM
Protocol: Concerning the SAR studies, 45 C10 derivatives were designed and synthesized, which were tested regarding both their antiviral activity against HCV and DENV, as well as their cytotoxicity. For the activity test, a construct including the viral genome and the reporter gene RLuc was used.
Huh7.5 cells were electroporated with the corresponding RNA, seeded in 96-well plate and treated during 24/48 h with C10 and the different compounds. The supernatant of virus-producing cells was used to re-infect naïve Huh7.5 cells, which were then lysed and their RLuc signal measured.

Huh7.5 cells = assay: SAR test of C10 derivatives: cytotoxicity (CellTiterGlo); conditions: 48 h

## CC(C)NCC(O)COc1cccc2ccccc12 (racemic) [Propranolol, (+,−) Propranolol hydrochloride, reference compound]
[1]
  half-life at 2 mM: 53.9 min

## CCN1/C(=C/C=C/c2sc3cc(N)ccc3[n+]2CC)Sc2cc(N)ccc21.[I-] [D1, 6-amino-2-[(1E)-3-[(2Z)-6-amino-3-ethyl-2,3-dihydro-1,3-benzothiazol-2-ylidene]prop-1-en-1-yl]-3-ethyl-1,3-benzothiazol-3-ium iodide]
[2]
  hematopoietic stem cell formation: no difference to the WT embryos

## O=C(CCCCCCC(=O)ON1C(=O)CCC1=O)ON1C(=O)CCC1=O [DSS, disuccinimidyl suberate, reference compound]
[3]
  crosslinking effect on other capsid and non-related proteins: clear effect of monomer consumption and dimer formation
DENV capsid protein
  effect on oligomerization state of DENV capsid protein: stabilizes mainly the dimer

## CC(C)[N+](C)(CCOC(=O)C1c2ccccc2Oc2ccccc21)C(C)C [Propantheline, Propantheline bromide, reference compound]
In vitro; 0 min
  % Remain. Mean: 100%
In vitro; 20 min
  % Remain. Mean: 66%
In vitro; 40 min
  % Remain. Mean: 29%
In vitro; 60 min
  % Remain. Mean: 13%
In vitro; 120 min
  % Remain. Mean: 2%
In vitro; mouse, plasma
  half-life at 1 μM: 20 min

## CC(=O)Nc1ccc2c(c1)S/C(=C\C=C\c1sc3cc(NC(C)=O)ccc3[n+]1C)N2C [compound 45, 6-acetamido-2-((1E,3E)-3-(6-acetamido-3-methylbenzo[d]thiazol-2(3H)-ylidene)prop-1-en-1-yl)-3-methylbenzo[d]thiazol-3-ium iodide]
HCV
  potency relative to C10 (IC50 against HCV): 2.5 times
Huh7.5 cells
  cytotoxicity: not cytotoxic at the concentrations in which they are antiviral

## CCN1/C(=C/C(C)=C/c2sc3cc(NC(C)=O)ccc3[n+]2CC)Sc2cc(NC(C)=O)ccc21 [compound 46, 6-acetamido-2-((1E,3E)-3-(6-acetamido-3-ethylbenzo[d]thiazol-2(3H)-ylidene)-2-methylprop-1-en-1-yl)-3-ethylbenzo[d]thiazol-3-ium iodide]
HCV
  potency relative to C10 (IC50 against HCV): 1.5 times
Huh7.5 cells
  cytotoxicity: not cytotoxic at the concentrations in which they are antiviral
